We go through 32 compounds from patent publication US11566025B2, “Viral replication inhibitors” (Katholieke Universiteit Leuven, priority 2013, dated 2023).

Like-named read-outs stand apart in the source and are kept apart here.

What all share (assay type): cell-based
One data set has as its system DENV-4 strain H241. Briefly: Antiviral activity against DENV-4 in Vero-M cells (viral RNA load by RT-qPCR). The conditions noted are these: Dengue virus, DENV4, 120 h; DENV-4, Vero-M cells, inhibition of viral RNA replication by 50%, 5 days. (In general: Real-time PCR tracks product formation cycle by cycle.)
The test system of data set [1] is DENV-3 strain H87 prototype. As to the kind of experiment: Antiviral activity against DENV-3 in Vero-B cells (viral RNA load by RT-qPCR). The conditions noted are these: Dengue virus.
Another data set concerns DENV-2 NGC. As to the kind of experiment: Antiviral activity against DENV-2 in Vero-B cells (viral RNA load by RT-qPCR). Particulars: Dengue virus, DENV2, 96 h; DENV-2, Vero-B cells, inhibition of viral RNA replication by 50%, 4 days.
In data set [2] the test system is DENV-1 Djibouti strain D1/H/IMTSSA/98/606. As to the kind of experiment: Antiviral activity against DENV-1 in Vero-B cells (viral RNA load by RT-qPCR). The conditions noted are these: Dengue virus, DENV1, 168 h; DENV-1, Vero-B cells, inhibition of viral RNA replication by 50%, 7 days.
The next data set deals with Vero-B cells. As to the kind of experiment: in vitro. Particulars: African green monkey. How it is done: (§1) Potential cytotoxic effects of the compounds were evaluated in uninfected quiescent Vero-B or Vero-M cells. Cells were seeded at 5×10^4 cells/well in a 96-well plate in the presence of two-fold serial dilutions (ranging from 50 μg/mL-0.004 μg/mL) of compound and incubated for 4 to 7 days. Culture medium was discarded and 100 μL 3-(4,5-dimethylthiazol-2-yl)-5-(3-carboxymethoxyphenyl)-2-(4-sulfophenyl)-2H-tetrazolium/phenazinemethosuIfate (MTS/PMS; Promega, Leiden, The Netherlands) in PBS was added to each well. Following a 2-hour incubation period at 37° C., the optical density was determined at 498 nm. Cytotoxic activity was calculated using the following formula: % cell viability=100× (ODcompound/ODCC), where ODcompound and ODCC correspond to the optical density at 498 nm of the uninfected cell cultures treated with compound and that of uninfected, untreated cell cultures, respectively. The 50% cytotoxic concentration (i.e., the concentration that reduces the total cell number with 50%; CC50) was calculated using linear interpolation.

Another data set is described as follows: in vitro. Particulars: African green monkey. How it is done: as §1
Where [3] appears, read: DENV3, 168 h, DENV-3, Vero-B cells, inhibition of viral RNA replication by 50%, 7 days, read-out: EC50.

In the case of `COc1cc(NC(C(=O)c2nn(C)cc2-c2ccccc2)c2ccc(C)cc2)cc(OC)c1` (stereo not drawn) [CPD-015], the half-maximal effective concentration (EC50) (usually the concentration that produces a half-maximal response) in the data set on DENV-4 strain H241 turned out to be 3150 nM; in data set [1] (DENV3, Vero B, 168 h), 1190 nM; in the data set on DENV-2 NGC, 16 nM; in data set [2], 132 nM. In addition, the CC50 (commonly the concentration at which the toxic effect on the cells reaches its halfway point) in the data set on Vero-B cells is above 113000 nM; in “in vitro”, above 113 µM; in the data set “in vitro” (CC50 (μM)) it was above 113 µM.
With `COc1cccc(NC(C(=O)c2n[nH]cc2-c2ccccc2)c2ccccc2)c1` (stereo not drawn) [CPD-023], the figures for the EC50 (in the data set on DENV-2 NGC; in data set [2]) were 443 nM and 939 nM, respectively.
Consider `COc1cccc(NC(C(=O)c2nn(C)cc2-c2ccccc2)c2ccc(F)cc2)c1` (stereo not drawn) [CPD-008], for which the EC50 with DENV-4 strain H241 amounted to 4740 nM; in data set [1] (setting [3]) it was 1010 nM; with DENV-2 NGC it was 96 nM; in data set [2], 2640 nM. The values for the CC50 with Vero-B cells, in “in vitro” and in the data set “in vitro” (CC50 (μM)) were above 120000 nM, above 120 µM and above 120 µM, respectively.
In the data set with DENV-2 NGC, `COc1cc(NC(C(=O)N2CCCCCC2c2ccccc2)c2ccc(C)cc2)cc(OC)c1` (stereo not drawn) [CPD-242] registered an EC50 of 1160 nM. In “in vitro” (CC50 (μM)), this compound gave a CC50 above 109 µM.
Consider `COc1cccc(NC(C(=O)c2nn(C)cc2-c2ccccc2)c2cccnc2)c1` (stereo not drawn) [CPD-003], for which the figures for the EC50 (with DENV-2 NGC; in data set [2]) were 1660 nM and 7010 nM, respectively. Moreover, the cytotoxic concentration (CC50) in the data set on Vero-B cells was 104000 nM; in “in vitro” (CC50 (μM)), above 125 µM.
For the compound `COc1cc(NC(C(=O)c2cn(C)c(Br)c2-c2ccccc2)c2ccccc2)cc(OC)c1` (stereo not drawn) [CPD-311], the 50% effective concentration (EC50) in data set [1] (setting [3]) is 266 nM; in the data set on DENV-2 NGC it was 47 nM; in data set [2], 16 nM. Also, the CC50 was above 99000 nM in the data set on Vero-B cells and above 99 µM in “in vitro” (CC50 (μM)).
In the data set on DENV-2 NGC, `COc1cc(NC(C(=O)N2CCS(=O)(=O)CC2c2ccccc2)c2ccc(C)cc2)cc(OC)c1` (stereo not drawn) [CPD-314] gave an EC50 of 4470 nM. The same compound gave a 50% cytotoxic concentration (CC50) in the data set “in vitro” (CC50 (μM)) above 101 µM.
Consider `COc1cccc(NC(C(=O)c2nn(C)cc2-c2ccc3c(c2)CCO3)c2ccc(OC)nc2)c1` (stereo not drawn) [CPD-017], for which the EC50 in the data set on DENV-2 NGC stood at 1640 nM. The cytotoxic concentration (CC50) in the data set “in vitro” (CC50 (μM)) was above 106 µM.
As for `COc1cccc(NC(C(=O)c2nn(C)cc2-c2cnn(C)c2)c2ccccc2)c1` (stereo not drawn) [CPD-007], the 50% effective concentration (EC50) in the data set with DENV-2 NGC came out at 15500 nM. The compound further displayed a CC50 in the data set “in vitro” (CC50 (μM)) above 125 µM.
As for `COc1cccc(NC(C(=O)c2nn(C)cc2-c2ccccc2)c2cncc(F)c2)c1` (stereo not drawn) [CPD-004], the values for the EC50 (with DENV-2 NGC; in data set [2]) were 1550 nM and 9780 nM, respectively. Besides, the CC50 is above 120000 nM in the data set with Vero-B cells and above 120 µM in the data set “in vitro” (CC50 (μM)).
As for `COc1cccc(NC(C(=O)c2cn(C)nc2-c2ccccc2)c2ccccc2)c1` (stereo not drawn) [CPD-026], the response in data set [2] was half-maximal at 2390 nM (EC50). The same compound registered a half-maximal cytotoxic concentration (CC50) in the data set “in vitro” (CC50 (μM)) above 126 µM.
Take `COc1cccc(NC(C(=O)c2c[nH]cc2-c2ccccc2)c2ccccc2)c1` (stereo not drawn) [CPD-024]: the EC50 in the data set on DENV-4 strain H241 came to 1600 nM; in data set [1] (setting [3]) it was 1910 nM; in the data set on DENV-2 NGC, 207 nM; in data set [2], 1530 nM. The compound further came in with a CC50 in the data set “in vitro” of 10 µM.
For `COc1cccc(NC(C(=O)c2nn(C)cc2-c2ccc(C)nc2)c2ccccc2)c1` (stereo not drawn) [CPD-019], the EC50 in the data set with DENV-2 NGC turned out to be 39900 nM. For the same compound, the CC50 in “in vitro” (CC50 (μM)) came to 80 µM.
For `COc1cccc(NC(C(=O)c2nn(C)cc2-c2c(C)noc2C)c2ccc(C)cc2)c1` (stereo not drawn) [CPD-020], the EC50 in the data set on DENV-2 NGC is 13200 nM. The compound also displayed a CC50 in “in vitro” (CC50 (μM)) above 116 µM.
On to `COc1cccc(NC(C(=O)c2nn(C)cc2-c2ccccc2)c2cc3ccccn3n2)c1` (stereo not drawn) [CPD-013], for which the EC50 with DENV-2 NGC stood at 343 nM; in data set [2], 2240 nM. The 50% cytotoxic concentration (CC50) was above 114000 nM in the data set on Vero-B cells and above 114 µM in the data set “in vitro” (CC50 (μM)).
Consider `COc1cccc(NC(C(=O)c2nn(C)cc2-c2ccncc2)c2ccc(C)cc2)c1` (stereo not drawn) [CPD-010], for which the concentration for a half-maximal effect (EC50) with DENV-2 NGC was 2110 nM. The compound also gave a CC50 in “in vitro” (CC50 (μM)) above 121 µM.
Compound `COc1cccc(NC(C(=O)c2nn(C)cc2-c2ccccc2)c2cnc(OC)cn2)c1` (stereo not drawn) [CPD-011] had an EC50 in the data set on DENV-2 NGC of 745 nM. This compound registered a CC50 in “in vitro” (CC50 (μM)) above 116 µM.
Taken in the same sequence, the figures for `COc1cccc(NC(C(=O)c2nn(C)cc2-c2cccc(F)c2)c2ccccc2)c1` (stereo not drawn) [CPD-006] were 517 nM and above 120 µM.
In turn, `COc1cccc(NC(C(=O)c2nn(C)cc2-c2cccs2)c2ccc(OC)nc2)c1` (stereo not drawn) [CPD-018] showed a half-maximal effective concentration (EC50) in the data set on DENV-2 NGC of 1270 nM. Moreover, the CC50 in the data set “in vitro” (CC50 (μM)) is above 115 µM.
For `COc1cc(NC(C(=O)N2CCCCC2c2ccccc2)c2ccc(C)cc2)cc(OC)c1` (stereo not drawn) [CPD-027], the results for the EC50 (in data set [1] (setting [3]); in the data set on DENV-2 NGC; in data set [2]) were 7230 nM, 1220 nM and 2080 nM, respectively.
In the case of `COc1cccc(NC(C(=O)c2nn(C)cc2-c2ccccc2)c2ccccc2)c1` (stereo not drawn) [CPD-001], the EC50 is 2120 nM in data set [1] (setting [3]), 323 nM with DENV-2 NGC and 2640 nM in data set [2]. The values for the cytotoxic concentration (CC50) with Vero-B cells and in the data set “in vitro” (CC50 (μM)) were above 126000 nM and above 125 µM, respectively.
In turn, `COc1cccc(NC(C(=O)c2cscc2-c2ccccc2)c2ccccc2)c1` (stereo not drawn) [CPD-025] gave a concentration for a half-maximal effect (EC50) in data set [2] of 3630 nM. Moreover, in the data set “in vitro” (CC50 (μM)), the CC50 was above 125 µM.
For `COc1cc(NC(C(=O)N2CCOCC2c2ccccc2)c2ccc(C)cc2)cc(OC)c1` (stereo not drawn) [CPD-312], the EC50 in the data set on DENV-2 NGC turned out to be 5650 nM. The CC50 in “in vitro” (CC50 (μM)) was above 112 µM.
In the case of `COc1cccc(NC(C(=O)c2nn(C)cc2-c2ccc3scnc3c2)c2ccc(OC)nc2)c1` (stereo not drawn) [CPD-016], in the data set with DENV-2 NGC, the EC50 turned out to be 1870 nM. The CC50 in “in vitro” (CC50 (μM)) is above 103 µM.
`COc1cccc(NC(C(=O)c2nn(C)cc2-c2cncnc2)c2ccc(C)cc2)c1` (stereo not drawn) [CPD-009] came in with an EC50 with DENV-2 NGC of 3290 nM. For the same compound, the half-maximal cytotoxic concentration (CC50) in “in vitro” (CC50 (μM)) was above 120 µM.
In the data set with DENV-2 NGC, `COc1cc(NC(C(=O)N2CCN(C)CC2c2ccccc2)c2ccc(C)cc2)cc(OC)c1` (stereo not drawn) [CPD-238] had a concentration giving a half-maximal response (EC50) of 2820 nM. This compound also had a CC50 in the data set “in vitro” (CC50 (μM)) above 99 µM.
Take `COc1cc(NC(C(=O)N2CCCC2c2ccccc2)c2ccc(C)cc2)cc(OC)c1` (stereo not drawn) [CPD-028]: the figures for the concentration for a half-maximal effect (EC50) (in the data set on DENV-4 strain H241; with DENV-2 NGC; in data set [2]) were 6670 nM, 221 nM and 17200 nM, respectively. Also, the CC50 in the data set with Vero-B cells is 70000 nM; in the data set “in vitro” it was above 116 µM; in “in vitro” (CC50 (μM)), above 116 µM.
Take `COc1cccc(NC(C(=O)c2nn(C)cc2-c2ccc(C#N)cc2)c2cc3ccccn3n2)c1` (stereo not drawn) [CPD-014]: in the data set with DENV-2 NGC, the response was half-maximal at 2290 nM (EC50). This compound also had a cytotoxic concentration (CC50) in “in vitro” (CC50 (μM)) above 108 µM.
Taken in the same sequence, the figures for `COc1cncc(NC(C(=O)c2nn(C)cc2-c2ccccc2)c2ccc(OC)nc2)c1` (stereo not drawn) [CPD-012] were 71300 nM and above 116 µM.
For `COc1cccc(NC(C(=O)c2nn(C)cc2-c2ccccc2F)c2ccccc2)c1` (stereo not drawn) [CPD-005], in that order: 383 nM and above 120 µM.
As for `COc1cccc(NC(C(=O)c2nn(C)cc2-c2ccc(F)cc2)c2ccccc2)c1` (stereo not drawn) [CPD-002], the EC50 in the data set on DENV-4 strain H241 was 8210 nM; in data set [1] (setting [3]), 794 nM; with DENV-2 NGC, 95 nM; in data set [2], 2090 nM. For the same compound, the values for the CC50 in the data set on Vero-B cells, in the data set “in vitro” and in “in vitro” (CC50 (μM)) were above 120000 nM, above 120 µM and above 120 µM, respectively.
In the data set with DENV-2 NGC, `COc1cc(NC(C(=O)N2CCSCC2c2ccccc2)c2ccc(C)cc2)cc(OC)c1` (stereo not drawn) [CPD-313] displayed a concentration for a half-maximal effect (EC50) of 951 nM. This compound returned a 50% cytotoxic concentration (CC50) in the data set “in vitro” (CC50 (μM)) above 108 µM.
